For test [1], the target named is human activated kallikrein enzyme (Homo sapiens, UniProt P03952). Description: Plasma kallikrein inhibition, fluorogenic PFR-AMC substrate, 500 pM activated kallikrein format. The class given is biochemical. Particulars: 500 pM activated kallikrein, 300 uM PFR-AMC, 30 min preincubation, 10 min reaction; read-out: Primary Dose Response Assay: Average EC50. The method in brief:
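High-enzyme format of the fluorogenic peptide assay, with EC50 taken from AMC signal: 500 pM activated kallikrein, 300 uM Pro-Phe-Arg-AMC, 30 min compound preincubation and 10 min reaction, all at room temperature, pH 7.5.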

The next test concerns the target T1, plasma kallikrein (Homo sapiens, UniProt P03952).
T1 construct: from tissue
Description: Neat human plasma assay, FXIIa contact pathway-activated, PFR-AMC substrate. It counts as biochemical. Particulars: citrated human plasma 78% final, 10 nM human FXIIa, 100 μM PFR-AMC; read-out: Human Plasma Assay: IC90. The method in brief:
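Compound inhibition of plasma kallikrein measured as PFR-AMC (100 μM) cleavage rate over 5 min at room temperature in 78% citrated human plasma activated with 10 nM FXIIa (Tris pH 7.5 buffer). IC50/IC90 from 4-parameter fit of rate versus inhibitor concentration.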

As a reminder, the EC50 is the concentration at which the effect is half-maximal. For orientation: IC90 means the concentration at which the effect reaches the 90% level.

Sequence of human activated kallikrein enzyme (P03952 391-638 limits assumed): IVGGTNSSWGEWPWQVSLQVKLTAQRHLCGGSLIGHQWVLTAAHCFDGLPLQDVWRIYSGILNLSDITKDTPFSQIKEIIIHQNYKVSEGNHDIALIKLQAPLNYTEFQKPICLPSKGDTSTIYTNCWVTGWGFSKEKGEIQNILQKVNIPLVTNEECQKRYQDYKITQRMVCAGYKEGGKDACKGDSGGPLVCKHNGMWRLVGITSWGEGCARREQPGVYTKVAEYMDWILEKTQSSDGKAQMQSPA
Sequence of human activated kallikrein enzyme (P03952 20-390 partner limits assumed): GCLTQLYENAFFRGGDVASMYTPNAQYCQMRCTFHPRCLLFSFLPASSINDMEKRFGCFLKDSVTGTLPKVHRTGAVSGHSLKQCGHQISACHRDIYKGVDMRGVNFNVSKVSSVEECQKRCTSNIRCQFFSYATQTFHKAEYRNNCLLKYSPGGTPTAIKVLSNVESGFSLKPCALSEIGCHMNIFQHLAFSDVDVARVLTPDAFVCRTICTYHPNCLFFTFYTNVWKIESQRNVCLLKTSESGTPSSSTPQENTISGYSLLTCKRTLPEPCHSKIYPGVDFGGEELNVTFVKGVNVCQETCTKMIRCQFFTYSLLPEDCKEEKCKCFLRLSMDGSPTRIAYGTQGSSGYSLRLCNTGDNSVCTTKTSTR
T1 sequence (P03952 391-638 limits assumed): as the sequence (P03952 391-638 limits assumed) above
T1 sequence (P03952 20-390 partner limits assumed): as the sequence (P03952 20-390 partner limits assumed) above

Regarding `O=C(Nc1cc(NCc2cn3cc(C4CC4)cc(N4C(=O)C5CCC4C5)c3n2)ccn1)[C@H]1C[C@@H]1c1cccc(Cl)c1` (stereo partly drawn) [Example 92, (1S,2S)-2-(3-chlorophenyl)-N-(4-(((6-cyclopropyl-8-(3-oxo-2-azabicyclo[2.2.1]heptan-2-yl)imidazo[1,2-a]pyridin-2-yl)methyl)amino)pyridin-2-yl)cyclopropane-1-carboxamide], in test [1], the EC50 is < 1 nM. Further, on plasma kallikrein, the IC90 lay within 1500 to 10000 nM.
The corresponding values for `O=C(Nc1cc(NCc2cn3cc(C4CC4)cc(N4CC5CC5C4=O)c3n2)ccn1)[C@H]1C[C@@H]1c1cccc(Cl)c1` (stereo partly drawn) [Example 95, (S,2S)-2-(3-chlorophenyl)-N-(4-(((6-cyclopropyl-8-(2-oxo-3-azabicyclo[3.1.0]hexan-3-yl)imidazo[1,2-a]pyridin-2-yl)methyl)amino)pyridin-2-yl)cyclopropane-1-carboxamide] are < 1 nM and 1500 to 10000 nM.
The corresponding values for `O=C(Nc1cc(NCc2cn3cc(C4CC4)cc(CO)c3n2)ccn1)[C@H]1C[C@@H]1c1cccc(Cl)c1` [Example 99, (1S,2S)-2-(3-chlorophenyl)-N-(4-(((6-cyclopropyl-8-(hydroxymethyl)imidazo[1,2-a]pyridin-2-yl)methyl)amino)pyridin-2-yl)cyclopropane-1-carboxamide] are < 1 nM and 400 to 1500 nM.
For `CC(C)(O)c1cc(C2CC2)cn2cc(CNc3ccnc(NC(=O)[C@H]4C[C@@H]4c4cccc(Cl)c4)c3)nc12` [Example 122, (1S,2S)-2-(3-chlorophenyl)-N-(4-(((6-cyclopropyl-8-(2-hydroxypropan-2-yl)imidazo[1,2-a]pyridin-2-yl)methyl)amino)pyridin-2-yl)cyclopropane-1-carboxamide], in that order: 1 to 10 nM and 10000 to 48000 nM.
As to `CC(C)c1ccc2nc(CNc3ccnc(NC(=O)[C@H]4C[C@@H]4c4cccc(Cl)c4)c3)cn2c1` [Example 123, (1S,2S)-2-(3-chlorophenyl)-N-(4-(((6-isopropylimidazo[1,2-a]pyridin-2-yl)methyl)amino)pyridin-2-yl)cyclopropane-1-carboxamide], in test [1], the EC50 is < 1 nM. In addition, at plasma kallikrein, the IC90 is 10000 to 48000 nM.
For `O=C(Nc1cc(NCc2cn3cc(C4CC4)cc(N4CC(F)C4)c3n2)ccn1)[C@H]1C[C@@H]1c1cccc(Cl)c1` [Example 125, (1S,2S)-2-(3-chlorophenyl)-N-(4-(((6-cyclopropyl-8-(3-fluoroazetidin-1-yl)imidazo[1,2-a]pyridin-2-yl)methyl)amino)pyridin-2-yl)cyclopropane-1-carboxamide], in test [1], the concentration giving a half-maximal response (EC50) is 1 to 10 nM. Further, the IC90 at plasma kallikrein fell in the range of 10000 to 48000 nM.
As for `CS(=O)(=O)Nc1cc(C2CC2)cn2cc(CNc3ccnc(NC(=O)[C@H]4C[C@@H]4c4cccc(Cl)c4)c3)nc12` [Example 126, (1S,2S)-2-(3-chlorophenyl)-N-(4-(((6-cyclopropyl-8-(methylsulfonamido)imidazo[1,2-a]pyridin-2-yl)methyl)amino)pyridin-2-yl)cyclopropane-1-carboxamide], the EC50 in test [1] was < 1 nM. In addition, the IC90 on plasma kallikrein lay within 10000 to 48000 nM.
For the molecule `CN1CCN(c2cc(C3CC3)cn3cc(CNc4ccnc(NC(=O)[C@H]5C[C@@H]5c5cccc(Cl)c5)c4)nc23)C(=O)C1` [Example 127, (1S,2S)-2-(3-chlorophenyl)-N-(4-(((6-cyclopropyl-8-(4-methyl-2-oxopiperazin-1-yl)imidazo[1,2-a]pyridin-2-yl)methyl)amino)pyridin-2-yl)cyclopropane-1-carboxamide], the EC50 in test [1] is < 1 nM. Further, the IC90 at plasma kallikrein was < 400 nM.
The corresponding values for `CN(c1cc(C2CC2)cn2cc(CNc3ccnc(NC(=O)[C@H]4C[C@@H]4c4cccc(Cl)c4)c3)nc12)S(C)(=O)=O` [Example 128, (1S,2S)-2-(3-chlorophenyl)-N-(4-(((6-cyclopropyl-8-(N-methylmethylsulfonamido)imidazo[1,2-a]pyridin-2-yl)methyl)amino)pyridin-2-yl)cyclopropane-1-carboxamide] are < 1 nM and 400 to 1500 nM.
As for `O=C(Nc1cc(NCc2cn3cc(C4CC4)cc(N4CCOCC4)c3n2)ccn1)[C@H]1C[C@@H]1c1cccc(Cl)c1` [Example 129, (1S,2S)-2-(3-chlorophenyl)-N-(4-(((6-cyclopropyl-8-morpholinoimidazo[1,2-a]pyridin-2-yl)methyl)amino)pyridin-2-yl)cyclopropane-1-carboxamide], the EC50 in test [1] is < 1 nM. For the same molecule, the IC90 at plasma kallikrein fell in the range of 1500 to 10000 nM.
The corresponding values for `CN1CCN(c2cc(C3CC3)cn3cc(CNc4ccnc(NC(=O)[C@H]5C[C@@H]5c5cccc(Cl)c5)c4)nc23)CC1=O` [Example 130, (1S,2S)-2-(3-chlorophenyl)-N-(4-(((6-cyclopropyl-8-(4-methyl-3-oxopiperazin-1-yl)imidazo[1,2-a]pyridin-2-yl)methyl)amino)pyridin-2-yl)cyclopropane-1-carboxamide] are < 1 nM and 400 to 1500 nM.
As to `O=C(Nc1cc(NCc2cn3cc(C4CC4)cc(N4CCNCC4)c3n2)ccn1)[C@H]1C[C@@H]1c1cccc(Cl)c1` [Example 132, (1S,2S)-2-(3-chlorophenyl)-N-(4-(((6-cyclopropyl-8-(piperazin-1-yl)imidazo[1,2-a]pyridin-2-yl)methyl)amino)pyridin-2-yl)cyclopropane-1-carboxamide], in test [1], the EC50 was < 1 nM. The IC90 at plasma kallikrein is 400 to 1500 nM.
As for `O=C(Nc1cc(NCc2cn3cc(C4CC4)cc(C4(F)CNC4)c3n2)ccn1)[C@H]1C[C@@H]1c1cccc(Cl)c1` [Example 133, (1S,2S)-2-(3-chlorophenyl)-N-(4-(((6-cyclopropyl-8-(3-fluoroazetidin-3-yl)imidazo[1,2-a]pyridin-2-yl)methyl)amino)pyridin-2-yl)cyclopropane-1-carboxamide], the EC50 in test [1] is < 1 nM. Further, the IC90 on plasma kallikrein was 400 to 1500 nM.
The corresponding values for `O=C(Nc1cc(NCc2cn3cc(C4CC4)cc(C4(O)CNC4)c3n2)ccn1)[C@H]1C[C@@H]1c1cccc(Cl)c1` [Example 134, (1S,2S)-2-(3-chlorophenyl)-N-(4-(((6-cyclopropyl-8-(3-hydroxyazetidin-3-yl)imidazo[1,2-a]pyridin-2-yl)methyl)amino)pyridin-2-yl)cyclopropane-1-carboxamide] are < 1 nM and < 400 nM.
`O=C(Nc1cc(NCc2cn3cc(C4CC4)cc(C(O)C4CNC4)c3n2)ccn1)[C@H]1C[C@@H]1c1cccc(Cl)c1` (stereo partly drawn) [Example 135, (1S,2S)—N-(4-(((8-(-azetidin-3-yl(hydroxy)methyl)-6-cyclopropylimidazo[1,2-a]pyridin-2-yl)methyl)amino)pyridin-2-yl)-2-(3-chlorophenyl)cyclopropane-1-carboxamide]: the EC50 in test [1] was < 1 nM. For the same molecule, the IC90 on plasma kallikrein is < 400 nM.
The corresponding values for `O=C(Nc1cc(N(CCO)Cc2cn3cc(C4CC4)ccc3n2)ccn1)[C@H]1C[C@@H]1c1cc(Cl)ccn1` [Example 137, (1S,2S)-2-(4-chloropyridin-2-yl)-N-(4-(((6-cyclopropylimidazo[1,2-a]pyridin-2-yl)methyl)(2-hydroxyethyl)amino)pyridin-2-yl)cyclopropane-1-carboxamide] are < 1 nM and 1500 to 10000 nM.
On to `CN1CCN(c2cc(C3CC3)cn3cc(CNc4ccnc(NC(=O)[C@H]5C[C@@H]5c5cccc(Cl)c5)c4)nc23)CC1` [Example 138, (1S,2S)-2-(3-chlorophenyl)-N-(4-(((6-cyclopropyl-8-(4-methylpiperazin-1-yl)imidazo[1,2-a]pyridin-2-yl)methyl)amino)pyridin-2-yl)cyclopropane-1-carboxamide], for which the EC50 in test [1] is < 1 nM. Besides, on plasma kallikrein, the IC90 was < 400 nM.
For `CC(=O)N(C)c1cc(C2CC2)cn2cc(CNc3ccnc(NC(=O)[C@H]4C[C@@H]4c4cccc(Cl)c4)c3)nc12` [Example 139, (1S,2S)-2-(3-chlorophenyl)-N-(4-(((6-cyclopropyl-8-(N-methylacetamido)imidazo[1,2-a]pyridin-2-yl)methyl)amino)pyridin-2-yl)cyclopropane-1-carboxamide], in that order: < 1 nM and 400 to 1500 nM.
Take `CN1CC2(C1)CN(c1cc(C3CC3)cn3cc(CNc4ccnc(NC(=O)[C@H]5C[C@@H]5c5cccc(Cl)c5)c4)nc13)C2` [Example 140, (1S,2S)-2-(3-chlorophenyl)-N-(4-(((6-cyclopropyl-8-(6-methyl-2,6-diazaspiro[3.3]heptan-2-yl)imidazo[1,2-a]pyridin-2-yl)methyl)amino)pyridin-2-yl)cyclopropane-1-carboxamide]: the EC50 in test [1] was < 1 nM. The IC90 on plasma kallikrein fell in the range of 400 to 1500 nM.
For `CC(=O)Nc1cc(C2CC2)cn2cc(CNc3ccnc(NC(=O)[C@H]4C[C@@H]4c4cccc(Cl)c4)c3)nc12` [Example 142, (1S,2S)-N-(4-(((8-acetamido-6-cyclopropylimidazo[1,2-a]pyridin-2-yl)methyl)amino)pyridin-2-yl)-2-(3-chlorophenyl)cyclopropane-1-carboxamide], in that order: < 1 nM and 1500 to 10000 nM.
For `O=C(Nc1cc(NCc2cn3cc(C4CC4)cc(N4CCCC4=O)c3n2)ncn1)[C@H]1C[C@@H]1c1cccc(Cl)c1` [Example 144, (1S,2S)-2-(3-chlorophenyl)-N-(6-(((6-cyclopropyl-8-(2-oxopyrrolidin-1-yl)imidazo[1,2-a]pyridin-2-yl)methyl)amino)pyrimidin-4-yl)cyclopropane-1-carboxamide], in that order: < 1 nM and 400 to 1500 nM.

Values taken from patent US20240228488A1 (TAKEDA PHARMACEUTICAL COMPANY LIMITED, priority 2021, published 2024).
